Test system: Jurkat cells
Assay: Confocal microscopy of stained Jurkat cells with and without CPT treatment
Format: cell-based
From the text: FIGS. 5A-5D are confocal microscopy images of F1-EA staining Jurkat cell samples without the washing step. FIGS. 5A and 5C display the FITC channel; FIGS. 5B and 5D display the phase contrast channel.
FIGS. 6A-6D are micrographs depicting representative confocal images.
FIGS. 8A-8D are a series of micrographs depicting confocal microscopy images of Rhodamine B and Rd-EA staining Jurkat cell samples. FIGS. 8A and 8B show Rhodamine B stained cells while FIGS. 8C and 8D show Rd-EA stained cells. FIGS. 8A and 8C are CPT treated cells while
The specificity of F1-EA for apoptotic cells were further validated through a costaining experiment with the R-phycoerythrin labeled annexin V (AV-PE, yellow emission). […] The flow cytometry result was further validated with confocal microscopy analysis.

| Molecule | selectivity of staining for apoptotic cells (confocal images, CPT-treated vs untreated Jurkat cells) | location of the stain in CPT-treated cells (confocal image, CPT-treated Jurkat cells) |
| --- | --- | --- |
| CCN(CC)c1ccc2c(-c3ccccc3C(=O)O)c3ccc(=[N+](CC)CC)cc-3oc2c1.[Cl-] [Rhodamine B] | no selectivity |  |
| AV-PE: R-phycoerythrin labeled annexin V (protein, UniProt P08758 2-320, looked up, R-phycoerythrin label, R-phycoerythrin labeled annexin V) Annexin A5: AQVLRGTVTDFPGFDERADAETLRKAMKGLGTDEESILTLLTSRSNAQRQEISAAFKTLFGRDLLDDLKSELTGKFEKLIVALMKPSRLYDAYELKHALKGAGTNEKVLTEIIASRTPEELRAIKQVYEEEYGSSLEDDVVGDTSGYYQRMLVVLLQANRDPDAGIDEAQVEQDAQALFQAGELKWGTDEEKFITIFGTRSVSHLRKVFDKYMTISGFQIEETIDRETSGNLEQLLLAVVKSIRSIPAYLAETLYYAMKGAGTDDHTLIRVMVSRSEIDLFNIRKEFRKNFATSLYSMIKGDTSGDYKKALLLLCGEDD |  | membrane location |

From US9119874B2, “Cell-penetrating markers of apoptosis” (TRUSTEES OF BOSTON COLLEGE, priority 2012, dated 2015)
